From patent US7091202B2, “4-arylspirocycloalkyl-2-aminopyrimidine carboxamide KCNQ potassium channel modulators” (Bristol-Myers Squibb Company, priority 2004, dated 2006)

molecular target: T1, hQ23 (HEK-293 cell line stably transfected with one of the members of the KCNQ family) (Homo sapiens, UniProt O43525+O43526); assay: Thallium flux assay for KCNQ channel blockers (FLIPR, BTC dye); type: cell-based; conditions: hQ23 cells, thallium flux
T1 construct: expressed in transfected cells; host or cells: HEK-293, stably transfected
Procedure: Thallium Flux Assay for KCNQ channel blockers. Approximately 20,000 cells/well of an HEK-293 cell line stably transfected with one of the members of the KCNQ family were plated into clear-bottom, black-walled, poly-D-lysine coated, 384 well assay plates in 20 μl/well of low chloride plating medium. Low chloride plating medium was composed of the following: sodium gluconate, 109 mM; potassium gluconate, 5.4 mM; hemi-calcium gluconate, 3.6 mM; magnesium sulfate, 0.8 mM; sodium bicarbonate, 26.2 mM; sodium phosphate monobasic, 1.2 mM; glutamine, 2 mM; glucose, 5 mM; HEPES (pH 7.3) 10 mM, 10× concentration of vitamins (Gibco/LifeTechnologies catalog #11120-052) and 1× concentration of amino acids (Gibco/LifeTechnologies catalog #11130-051).
Following overnight incubation in a 5% CO2 incubator at 37° C., the cells in the plates were loaded with 20 μl/well of a dye loading solution containing the acetomethoxy ester of the thallium-sensitive fluorescent dye BTC, BTC-AM (2 μM) and pluronic acid (0.02% w/v) in chloride free assay buffer. Chloride free assay buffer was composed of the following: sodium gluconate, 140 mM; potassium gluconate, 2.5 mM; hemi-calcium gluconate, 6 mM; hemi-magnesium gluconate, 2 mM; glucose, 5 mM; HEPES (pH 7.3), 10 mM.
Following incubation in the dye loading solution for from 45–90 min at room temperature, the dye loading solution was removed by aspiration and replaced with 40 μl/well of chloride free assay buffer.
Prior to addition to cell plates, test compound and standard compounds were dissolved in DMSO to 3 mM concentration. Compounds were then diluted from the 3 mM stock to 100-fold over the final assay concentration in DMSO. Finally, compounds in DMSO were diluted from 100-fold over the final assay concentration to 5-fold over the final assay concentration in chloride free assay buffer.
Ten μl/well of compounds at 5-fold over the final assay concentration were then added to the cell plates. This represents a 1:5 dilution, yielding the final test concentration. The wells used for test compounds were A1–P20. Wells A21–P22 contained a standard ‘blocker’ and a fully efficacious concentration (positive control). Wells A23–P24 contained chloride free assay buffer containing 1% DMSO (negative control).
Following addition of test compounds, the plates were loaded onto the Molecular Devices FLIPR. The 488 nm line of the argon laser was used to excite the BTC and the emission filter was a 540(+/−30) nm. Images were collected at 1 Hz. Ten seconds of baseline were collected and then the FLIPR was used to add 13 μl/well of a stimulus buffer composed of Tl2SO4, 25 mM; sodium gluconate, 30 mM; potassium sulfate, 50 mM; hemi-calcium gluconate, 6 mM; hemi-magnesium gluconate, 2 mM; glucose, 5 mM; HEPES (pH 7.3), 10 mM in chloride free assay buffer. Images were collected for an additional 60 seconds.
For data analysis, the amplitude of the average of the negative controls was subtracted from all wells. The amplitudes of the test compounds were then compared to the value of four standard deviations of the negative control wells. The lowest concentration of a test compound sufficient to generate a signal amplitude greater than or equal to four standard deviations from the amplitude of the negative controls was defined as the minimal active concentration.
For generating IC50 values, compounds were serially diluted in 1:3 volume increments to produce a 10 point concentration series. IC50 values were calculated by fitting the resulting amplitudes to a single-site logistic equation. IC50 was defined as the concentration of test compound required to yield 50% of the response of the positive control.

T1 sequence (O43526 whole entry): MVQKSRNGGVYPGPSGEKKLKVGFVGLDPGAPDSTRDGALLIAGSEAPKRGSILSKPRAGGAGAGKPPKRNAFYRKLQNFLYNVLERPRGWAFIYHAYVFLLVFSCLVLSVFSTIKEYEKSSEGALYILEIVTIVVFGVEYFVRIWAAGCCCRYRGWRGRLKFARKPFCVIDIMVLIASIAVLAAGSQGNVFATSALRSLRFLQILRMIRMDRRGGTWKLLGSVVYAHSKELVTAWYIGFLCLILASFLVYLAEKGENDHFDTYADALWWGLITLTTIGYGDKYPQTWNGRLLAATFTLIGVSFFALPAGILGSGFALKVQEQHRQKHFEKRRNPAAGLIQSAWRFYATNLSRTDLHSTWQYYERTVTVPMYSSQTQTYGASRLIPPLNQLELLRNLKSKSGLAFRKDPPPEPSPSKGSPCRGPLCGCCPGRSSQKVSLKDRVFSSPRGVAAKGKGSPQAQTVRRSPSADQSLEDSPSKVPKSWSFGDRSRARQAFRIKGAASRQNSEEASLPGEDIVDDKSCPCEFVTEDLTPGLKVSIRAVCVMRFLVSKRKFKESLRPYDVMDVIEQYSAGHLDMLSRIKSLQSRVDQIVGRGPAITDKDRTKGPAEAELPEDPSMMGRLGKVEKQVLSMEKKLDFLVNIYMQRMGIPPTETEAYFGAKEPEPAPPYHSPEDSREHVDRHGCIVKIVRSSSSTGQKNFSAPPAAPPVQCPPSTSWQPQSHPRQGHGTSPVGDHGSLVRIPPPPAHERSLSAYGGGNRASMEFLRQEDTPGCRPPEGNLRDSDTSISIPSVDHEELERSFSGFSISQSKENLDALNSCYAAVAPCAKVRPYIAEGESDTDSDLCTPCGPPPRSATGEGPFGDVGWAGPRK
T1 sequence (O43525 whole entry): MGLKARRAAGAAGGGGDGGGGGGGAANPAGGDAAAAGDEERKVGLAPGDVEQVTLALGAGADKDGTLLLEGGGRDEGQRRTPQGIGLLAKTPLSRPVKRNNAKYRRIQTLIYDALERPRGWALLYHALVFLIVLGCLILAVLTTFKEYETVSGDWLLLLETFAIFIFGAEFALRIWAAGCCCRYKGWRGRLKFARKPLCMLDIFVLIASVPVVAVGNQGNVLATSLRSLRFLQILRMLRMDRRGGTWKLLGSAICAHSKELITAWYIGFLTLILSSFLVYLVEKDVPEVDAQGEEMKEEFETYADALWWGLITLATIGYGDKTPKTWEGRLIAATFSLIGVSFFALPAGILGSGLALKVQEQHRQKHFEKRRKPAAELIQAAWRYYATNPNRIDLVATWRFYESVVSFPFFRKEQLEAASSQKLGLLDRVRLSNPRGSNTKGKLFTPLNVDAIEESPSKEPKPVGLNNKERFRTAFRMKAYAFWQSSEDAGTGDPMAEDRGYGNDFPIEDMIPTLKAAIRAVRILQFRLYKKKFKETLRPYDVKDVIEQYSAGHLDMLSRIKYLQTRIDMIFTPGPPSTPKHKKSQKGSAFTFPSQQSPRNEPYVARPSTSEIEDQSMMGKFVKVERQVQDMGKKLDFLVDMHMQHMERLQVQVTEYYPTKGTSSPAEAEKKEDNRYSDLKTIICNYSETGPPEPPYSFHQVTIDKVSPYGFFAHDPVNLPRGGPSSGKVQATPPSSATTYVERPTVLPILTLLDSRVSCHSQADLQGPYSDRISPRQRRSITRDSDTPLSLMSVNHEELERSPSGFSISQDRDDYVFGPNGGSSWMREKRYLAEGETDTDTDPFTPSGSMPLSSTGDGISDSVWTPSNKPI

| EC50 [µM] | Structure (SMILES) |
| --- | --- |
| 0.829 | CCN(Cc1ccccc1)C(=O)c1cnc(NC2CCC(C)CC2)nc1C1(c2ccccc2)CCCC1 (stereo not shown) [Example 84, 5-pyrimidinecarboxamide, N-ethyl-2-[(4-methylcyclohexyl)amino]-4-(1-phenylcyclopentyl)-N-(phenylmethyl)-] |
| 0.161 | CCN(Cc1ccccc1)C(=O)c1cnc(N2CCCC(C)C2)nc1C1(c2ccccc2)CCCC1 (stereo not shown) [Example 85, 5-pyrimidinecarboxamide, N-ethyl-2-(3-methyl-1-piperidinyl)-4-(1-phenylcyclopentyl)-N-(phenylmethyl)-] |
| 0.334 | CCN(Cc1ccccc1)C(=O)c1cnc(N2CCC(C)CC2)nc1C1(c2ccccc2)CCCC1 [Example 86, 5-pyrimidinecarboxamide, N-ethyl-2-(4-methyl-1-piperidinyl)-4-(1-phenylcyclopentyl)-N-(phenylmethyl)-] |
| 0.851 | CCC(C)Nc1ncc(C(=O)N(CC)Cc2ccccc2)c(C2(c3ccccc3)CCCC2)n1 (stereo not shown) [Example 87, 5-pyrimidinecarboxamide, N-ethyl-2-[(1-methylpropyl)amino]-4-(1-phenylcyclopentyl)-N-(phenylmethyl)-] |
| 0.926 | CCN(Cc1ccccc1)C(=O)c1cnc(NC2CCCC2)nc1C1(c2ccccc2)CCCC1 [Example 88, 5-pyrimidinecarboxamide, 2-(cyclopentylamino)-N-ethyl-4-(1-phenylcyclopentyl)-N-(phenylmethyl)-] |
| 0.692 | O=C(NCc1ccc2c(c1)OCO2)c1cnc(NC2CC2)nc1C1(c2ccccc2)CCCC1 [Example 89, 5-pyrimidinecarboxamide, N-(1,3-benzodioxol-5-ylmethyl)-2-(cyclopropylamino)-4-(1-phenylcyclopentyl)-] |
| 0.22 | CC1CCC(Nc2ncc(C(=O)NCc3ccc4c(c3)OCO4)c(C3(c4ccccc4)CCCC3)n2)CC1 (stereo not shown) [Example 90, 5-pyrimidinecarboxamide, N-(1,3-benzodioxol-5-ylmethyl)-2-[(4-methylcyclohexyl)amino]-4-(1-phenylcyclopentyl)-] |
| 0.257 | CN1CCN(c2ncc(C(=O)NCc3ccc4c(c3)OCO4)c(C3(c4ccccc4)CCCC3)n2)CC1 [Example 91, 5-pyrimidinecarboxamide, N-(1,3-benzodioxol-5-ylmethyl)-2-(4-methyl-1-piperazinyl)-4-(1-phenylcyclopentyl)-] |
| 0.057 | CC1CCCN(c2ncc(C(=O)NCc3ccc4c(c3)OCO4)c(C3(c4ccccc4)CCCC3)n2)C1 (stereo not shown) [Example 92, 5-pyrimidinecarboxamide, N-(1,3-benzodioxol-5-ylmethyl)-2-(3-methyl-1-piperidinyl)-4-(1-phenylcyclopentyl)-] |
| 0.037 | CC1CCN(c2ncc(C(=O)NCc3ccc4c(c3)OCO4)c(C3(c4ccccc4)CCCC3)n2)CC1 [Example 93, 5-pyrimidinecarboxamide, N-(1,3-benzodioxol-5-ylmethyl)-2-(4-methyl-1-piperidinyl)-4-(1-phenylcyclopentyl)-] |
| 0.301 | CCC(C)Nc1ncc(C(=O)NCc2ccc3c(c2)OCO3)c(C2(c3ccccc3)CCCC2)n1 (stereo not shown) [Example 94, 5-pyrimidinecarboxamide, N-(1,3-benzodioxol-5-ylmethyl)-2-[(1-methylpropyl)amino]-4-(1-phenylcyclopentyl)-] |
| 0.064 | CC1CCC(Nc2ncc(C(=O)NC(C)c3cccc4ccccc34)c(C3(c4ccccc4)CCCC3)n2)CC1 (stereo not shown) [Example 95, 5-pyrimidinecarboxamide, 2-[(4-methylcyclohexyl)amino]-N-[1-(1-naphthalenyl)ethyl]-4-(1-phenylcyclopentyl)-] |
| 0.148 | CC(NC(=O)c1cnc(N2CCCC2)nc1C1(c2ccccc2)CCCC1)c1cccc2ccccc12 (stereo not shown) [Example 96, 5-pyrimidinecarboxamide, N-[1-(1-naphthalenyl)ethyl]-4-(1-phenylcyclopentyl)-2-(1-pyrrolidinyl)-] |
| 0.019 | CC1CCCN(c2ncc(C(=O)NC(C)c3cccc4ccccc34)c(C3(c4ccccc4)CCCC3)n2)C1 (stereo not shown) [Example 97, 5-pyrimidinecarboxamide, 2-(3-methyl-1-piperidinyl)-N-[1-(1-naphthalenyl)ethyl]-4-(1-phenylcyclopentyl)-] |

Second part, the compound before the results:

| Structure (SMILES) | EC50 [µM] |
| --- | --- |
| CC1CCC(Nc2ncc(C(=O)N3CCc4ccccc4C3)c(C3(c4ccccc4)CCCC3)n2)CC1 (stereo not shown) [Example 73, isoquinoline, 1,2,3,4-tetrahydro-2-[[2-[(4-methylcyclohexyl)amino]-4-(1-phenylcyclopentyl)-5-pyrimidinyl]carbonyl]-] | 0.798 |
| CC1CCN(c2ncc(C(=O)N3CCc4ccccc4C3)c(C3(c4ccccc4)CCCC3)n2)CC1 [Example 74, isoquinoline, 1,2,3,4-tetrahydro-2-[[2-(4-methyl-1-piperidinyl)-4-(1-phenylcyclopentyl)-5-pyrimidinyl]carbonyl]-] | 0.191 |
| O=C(c1cnc(NC2CCCC2)nc1C1(c2ccccc2)CCCC1)N1CCc2ccccc2C1 [Example 75, isoquinoline, 2-[[2-(cyclopentylamino)-4-(1-phenylcyclopentyl)-5-pyrimidinyl]carbonyl]-1,2,3,4-tetrahydro-] | 0.95 |
| CCN(C(=O)c1cnc(N2CCC(C)CC2)nc1C1(c2ccccc2)CCCC1)C1CCCCC1 [Example 76, 5-pyrimidinecarboxamide, N-cyclohexyl-N-ethyl-2-(4-methyl-1-piperidinyl)-4-(1-phenylcyclopentyl)-] | 0.9 |
| CC1CCN(c2ncc(C(=O)N3CCCCC3)c(C3(c4ccccc4)CCCC3)n2)CC1 [Example 77, piperidine, 1-[[2-(4-methyl-1-piperidinyl)-4-(1-phenylcyclopentyl)-5-pyrimidinyl]carbonyl]-] | 0.164 |
| CC1CCN(c2ncc(C(=O)N3CCCC(C)C3)c(C3(c4ccccc4)CCCC3)n2)CC1 (stereo not shown) [Example 78, piperidine, 3-methyl-1-[[2-(4-methyl-1-piperidinyl)-4-(1-phenylcyclopentyl)-5-pyrimidinyl]carbonyl]-] | 0.775 |
| CN(CCc1ccccc1)C(=O)c1cnc(N2CCCC2)nc1C1(c2ccccc2)CCCC1 [Example 79, 5-pyrimidinecarboxamide, N-methyl-4-(1-phenylcyclopentyl)-N-(2-phenylethyl)-2-(1-pyrrolidinyl)-] | 0.444 |
| CC1CCCN(c2ncc(C(=O)N(C)CCc3ccccc3)c(C3(c4ccccc4)CCCC3)n2)C1 (stereo not shown) [Example 80, 5-pyrimidinecarboxamide, N-methyl-2-(3-methyl-1-piperidinyl)-4-(1-phenylcyclopentyl)-N-(2-phenylethyl)-] | 0.88 |
| CC1CCN(c2ncc(C(=O)N(C)CCc3ccccc3)c(C3(c4ccccc4)CCCC3)n2)CC1 [Example 81, 5-pyrimidinecarboxamide, N-methyl-2-(4-methyl-1-piperidinyl)-4-(1-phenylcyclopentyl)-N-(2-phenylethyl)-] | 0.437 |
| CC1CCCN(c2ncc(C(=O)N(C(C)C)C(C)C)c(C3(c4ccccc4)CCCC3)n2)C1 (stereo not shown) [Example 82, 5-pyrimidinecarboxamide,N,N-bis(1-methylethyl)-2-(3-methyl-1-piperidinyl)-4-(1-phenylcyclopentyl)-] | 0.285 |
| CCN(C)C(=O)c1cnc(N2CCCC(C)C2)nc1C1(c2ccccc2)CCCC1 (stereo not shown) [Example 83, 5-pyrimidinecarboxamide, N-ethyl-N-methyl-2-(3-methyl-1-piperidinyl)-4-(1-phenylcyclopentyl)-] | 0.605 |
